From US20250163057A1, “DCN-1 MODULATING COMPOUNDS AND METHODS OF USE THEREOF” (Cellarity, Inc., priority 2023, published 2025) come the findings set out here.

A word on the IC50: it is the concentration that gives 50% inhibition.

Read-outs that look alike come from different tables or passages of the source. Some results are limits rather than exact numbers.

One assay addresses DCN1 protein (Homo sapiens (Human), UniProt Q96GG9). The experiment in a line: Intact Protein MS Analysis with the RapidFire-TOF System (covalent adduct formation). The assay is classed as binding. Conditions: MS Emax; 400 nM DCN1, 3 hours at room temperature. The method, boiled down: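 Tag-cleaved human DCN1 (400 nM) expressed in E. coli, in 25 mM Tris-HCl, 200 mM NaCl, 1 mM DTT, was incubated with 11 compound concentrations for 3 h at room temperature and quenched with 0.2% formic acid. Intact-protein Q-TOF MS with deconvolution detected the compound adduct mass.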

The test system of assay [1] is Cullin-3 (CUL3) neddylation. The experiment in a line: AlphaLISA assay for Cullin-3 (CUL3) neddylation in TF 1 cells. The class given is cell-based. Conditions: Homo sapiens, TF-1, 3 h, 3 hours treatment. The method, boiled down: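 TF 1 cells in unsupplemented IMDM treated with compound concentrations for 3 h, then lysed. CUL3 neddylation detected by AlphaLISA (biotinylated anti-NEDD8, anti-CUL3 acceptor beads overnight, streptavidin donor beads 1 h); normalized to vehicle (0%) and 1 μM DI-1548 (100%), IC50 from Hill fits.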

The target of assay [2] is DCN1 (DCUND1) protein PONY domain (Homo sapiens (Human), UniProt Q96GG9). The experiment in a line: TR-FRET assay, DCN1 binding with FAM-labeled probe. The method, boiled down: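 Biotinylated DCN1 PONY domain, labeled with streptavidin-Tb, was competed against a FAM-labeled non-covalent DCN1 inhibitor probe in buffer with TritonX and 200 mM NaCl. Conditions were 5 nM DCN1 with 20 nM FAM-probe, or 0.31 nM DCN1 with 100 nM FAM-plus 800 nM unlabeled probe. The TR-FRET ratio was read at 1, 5 and 24 h (0.1% DMSO).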

Where [3] appears, read: 24 hr after treatment with compound, read-out: TR FRET IC50 24 hr.
Where [4] appears, read: TR FRET IC50 1 hr (nM), 1 hr after treatment with compound.
The mark [5] stands for this setting: read-out: TR FRET IC50 1 hr, 1 hr after treatment with compound.

Chain of DCN1 protein (Q96GG9 whole entry): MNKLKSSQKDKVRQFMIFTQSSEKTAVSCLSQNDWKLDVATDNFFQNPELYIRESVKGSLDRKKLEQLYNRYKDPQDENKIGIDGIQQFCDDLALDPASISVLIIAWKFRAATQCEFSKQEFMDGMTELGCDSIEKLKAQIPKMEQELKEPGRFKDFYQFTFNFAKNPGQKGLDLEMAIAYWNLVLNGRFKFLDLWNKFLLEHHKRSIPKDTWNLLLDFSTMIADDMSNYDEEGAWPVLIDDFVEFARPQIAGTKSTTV
Chain of DCN1 (DCUND1) protein PONY domain (Q96GG9 60-248): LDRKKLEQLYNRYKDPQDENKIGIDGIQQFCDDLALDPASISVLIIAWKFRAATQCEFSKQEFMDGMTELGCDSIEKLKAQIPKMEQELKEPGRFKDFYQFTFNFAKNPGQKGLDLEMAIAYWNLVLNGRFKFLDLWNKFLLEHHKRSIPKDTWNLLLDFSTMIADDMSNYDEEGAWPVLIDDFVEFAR

Consider `CCN1C(=O)[C@@H](NC(=O)c2ccn(C(F)(F)F)n2)[C@@H](c2ccc(F)cc2)c2c(C(=O)N3CCNC[C@H]3C#N)nn(-c3ccccc3)c21` [Compound I-346, N-((4S,5S)-3-((S)-2-cyanopiperazine-1-carbonyl)-7-ethyl-4-(4-fluorophenyl)-6-oxo-1-phenyl-4,5,6,7-tetrahydro-1H-pyrazolo[3,4-b]pyridin-5-yl)-1-(trifluoromethyl)-1H-pyrazole-3-carboxamide], for which the “% Adduct Formation” value at DCN1 protein was “+++ (MS Emax % adduct formation greater than 80.0 and less than or equal to 100.0)”. Also, the IC50 is at most 100 nM in assay [1], at most 200 nM in assay [2] (setting [3]) and 200 to 1000 nM in assay [2] (setting [4]).

`CCN1C(=O)[C@@H](NC(=O)c2cccc(C(F)(F)F)c2)[C@@H](c2ccc(F)cc2)c2c(C(=O)N3CCC[C@H]3C#N)nn(-c3cccc(OCCN(C)C4COC4)c3)c21` [Compound I-347]: on DCN1 protein, the “% Adduct Formation” value is “+++ (MS Emax % adduct formation greater than 80.0 and less than or equal to 100.0)”. Further, the IC50 was at most 100 nM in assay [1], at most 200 nM in assay [2] (setting [3]) and 200 to 1000 nM in assay [2] (setting [4]).

In the case of `CCN1C(=O)[C@@H](NC(=O)c2cccc(C(F)(F)F)c2)[C@@H](c2ccc(F)cc2)c2c(C(=O)N(CC#N)C3CC3)nn(C3CCOCC3)c21` [Compound I-351], at DCN1 protein, the “% Adduct Formation” value is “+++ (MS Emax % adduct formation greater than 80.0 and less than or equal to 100.0)”. In addition, the values for the IC50 in assay [1], in assay [2] (setting [3]) and in assay [2] (setting [5]) were at most 100 nM, at most 200 nM and at most 200 nM, respectively.

On to `CCN1C(=O)[C@@H](NC(=O)c2cccc(C(F)(F)F)c2)[C@@H](c2ccc(F)cc2)c2c(C(=O)N(CC#N)CCN(C)C)nn(C3CCOCC3)c21` [Compound I-352], for which the “% Adduct Formation” value on DCN1 protein is “+++ (MS Emax % adduct formation greater than 80.0 and less than or equal to 100.0)”. In addition, the IC50 in assay [1] was at most 100 nM; in assay [2] (setting [3]) it was at most 200 nM; in assay [2] (setting [5]), at most 200 nM.

On to `CCN1C(=O)[C@@H](NC(=O)c2cccc(C(F)(F)F)c2)[C@@H](c2ccc(F)cc2)c2c(C(=O)N(CC#N)CCCN(C)C)nn(C3CCOCC3)c21` [Compound I-353], for which, on DCN1 protein, the “% Adduct Formation” value was “+++ (MS Emax % adduct formation greater than 80.0 and less than or equal to 100.0)”. The values for the IC50 in assay [1], in assay [2] (setting [3]) and in assay [2] (setting [5]) were at most 100 nM, at most 200 nM and at most 200 nM, respectively.

Turning to `CCN1C(=O)[C@@H](NC(=O)c2cccc(C(F)(F)F)c2)[C@@H](c2ccc(F)cc2)c2c(C(=O)N3CCC[C@H]3C#N)nn(C3CC3)c21` [Compound I-354], the “% Adduct Formation” value at DCN1 protein was “++ (MS Emax % adduct formation greater than 30.0 and less than or equal to 80.0)”. In addition, the IC50 is at most 100 nM in assay [1], at most 200 nM in assay [2] (setting [3]) and at most 200 nM in assay [2] (setting [5]).

As for `CCN1C(=O)[C@@H](NC(=O)c2cccc(C(F)(F)F)c2)[C@@H](c2ccc(F)cc2)c2c(C(=O)N(CC#N)C3CC3)nn(C3CC3)c21` [Compound I-355], the “% Adduct Formation” value on DCN1 protein is “+++ (MS Emax % adduct formation greater than 80.0 and less than or equal to 100.0)”. The IC50 in assay [1] is at most 100 nM; in assay [2] (setting [3]), at most 200 nM; in assay [2] (setting [5]) it was at most 200 nM.

Consider `CCCn1nc(C(=O)N(CC#N)C2CC2)c2c1N(CC)C(=O)[C@@H](NC(=O)c1cccc(C(F)(F)F)c1)[C@H]2c1ccc(F)cc1` [Compound I-356], for which the “% Adduct Formation” value on DCN1 protein is “+++ (MS Emax % adduct formation greater than 80.0 and less than or equal to 100.0)”. Also, the concentration for half-maximal inhibition (IC50) in assay [1] was at most 100 nM; in assay [2] (setting [3]), at most 200 nM; in assay [2] (setting [4]), 200 to 1000 nM.

`CCN1C(=O)[C@@H](NC(=O)c2cccc(C(F)(F)F)c2)[C@@H](c2ccc(F)cc2)c2c(C(=O)N3CCN(C4COC4)CC3C#N)nn(-c3ccccc3)c21` (some centres unmarked) [Compound I-357]: at DCN1 protein, the “% Adduct Formation” value was “++ (MS Emax % adduct formation greater than 30.0 and less than or equal to 80.0)”. Besides, the results for the IC50 in assay [1], in assay [2] (setting [3]) and in assay [2] (setting [5]) were at most 100 nM, at most 200 nM and at most 200 nM, respectively.

For `CCN1C(=O)[C@@H](NC(=O)c2cccc(C(F)(F)F)c2)[C@@H](c2ccc(F)cc2)c2c(C(=O)N(CC#N)CC#N)nn(C3CCOCC3)c21` [Compound I-365], the “% Adduct Formation” value on DCN1 protein was “+++ (MS Emax % adduct formation greater than 80.0 and less than or equal to 100.0)”. The IC50 is at most 100 nM in assay [1], at most 200 nM in assay [2] (setting [3]) and at most 200 nM in assay [2] (setting [5]).

In the case of `CCN1C(=O)[C@@H](NC(=O)c2cccc(C(F)(F)F)c2)[C@@H](c2ccc(F)cc2)c2c(C(=O)N(C)CC#N)nn(C3CCOCC3)c21` [Compound I-366], at DCN1 protein, the “% Adduct Formation” value was “+++ (MS Emax % adduct formation greater than 80.0 and less than or equal to 100.0)”. Moreover, the results for the IC50 in assay [1], in assay [2] (setting [3]) and in assay [2] (setting [5]) were at most 100 nM, at most 200 nM and at most 200 nM, respectively.

In the case of `CCN1C(=O)[C@@H](NC(=O)c2cccc(C(F)(F)F)c2)[C@@H](c2ccc(F)cc2)c2c(C(=O)N(C)[C@H](C)C#N)nn(C3CCOCC3)c21` [Compound I-367], the “% Adduct Formation” value at DCN1 protein is “+++ (MS Emax % adduct formation greater than 80.0 and less than or equal to 100.0)”. Further, the IC50 in assay [1] was at most 100 nM; in assay [2] (setting [3]), at most 200 nM; in assay [2] (setting [5]), at most 200 nM.

In the case of `CCN1C(=O)[C@@H](NC(=O)c2cccc(C(F)(F)F)c2)[C@@H](c2ccc(F)cc2)c2c(C(=O)N(C)[C@@H](C)C#N)nn(C3CCOCC3)c21` [Compound I-368], at DCN1 protein, the “% Adduct Formation” value is “+++ (MS Emax % adduct formation greater than 80.0 and less than or equal to 100.0)”. Besides, the IC50 in assay [1] is at most 100 nM; in assay [2] (setting [3]) it was at most 200 nM; in assay [2] (setting [5]), at most 200 nM.

For the compound `CCN1C(=O)[C@@H](NC(=O)c2cccc(C(F)(F)F)c2)[C@@H](C2CC2)c2c(C(=O)N(CC#N)CC#N)nn(C3CCOCC3)c21` [Compound I-373], the “% Adduct Formation” value on DCN1 protein was “++ (MS Emax % adduct formation greater than 30.0 and less than or equal to 80.0)”. Moreover, the figures for the IC50 in assay [1], in assay [2] (setting [3]) and in assay [2] (setting [5]) were at most 100 nM, at most 200 nM and at most 200 nM, respectively.

Take `CCN1C(=O)[C@@H](NC(=O)c2cccc(C(F)(F)F)c2)[C@@H](C2CCC2)c2c(C(=O)N(C)C(C)C#N)nn(C3CCOCC3)c21` (some centres unmarked) [Compound I-375]: on DCN1 protein, the “% Adduct Formation” value was “+++ (MS Emax % adduct formation greater than 80.0 and less than or equal to 100.0)”. For the same compound, the IC50 was at most 100 nM in assay [1], at most 200 nM in assay [2] (setting [3]) and at most 200 nM in assay [2] (setting [5]).

Turning to `CCN1C(=O)[C@@H](NC(=O)c2cccc(C(F)(F)F)c2)[C@@H](C2CCCC2)c2c(C(=O)N3[C@H](C#N)C[C@H]4C[C@H]43)nn(C3CCOCC3)c21` [Compound I-376], the “% Adduct Formation” value on DCN1 protein is “+++ (MS Emax % adduct formation greater than 80.0 and less than or equal to 100.0)”. For the same compound, the IC50 in assay [1] is at most 100 nM; in assay [2] (setting [3]), at most 200 nM; in assay [2] (setting [5]), at most 200 nM.

For `CCN1C(=O)[C@@H](NC(=O)c2cccc(C(F)(F)F)c2)[C@@H](C2CC2)c2c(C(=O)N3CCOC[C@H]3C#N)nn(-c3ccccc3)c21` [Compound I-382], the “% Adduct Formation” value at DCN1 protein was “+++ (MS Emax % adduct formation greater than 80.0 and less than or equal to 100.0)”. Also, the IC50 in assay [1] was at most 100 nM; in assay [2] (setting [3]), at most 200 nM; in assay [2] (setting [4]), 200 to 1000 nM.
